One data set can be described thus: in vivo. The settings on record: male, Beagle, dog, serum, 1 mg, Maximum blood concentration of human calcitonin in average (pg/ml), sublingual rapidly soluble composition. As for the experimental part:
Each one of the test material was administered by a sublingual route to a male Beagle dog which fasted over-night, and the blood was collected at intervals (after 10, 20, 30, 45 and 60 minutes). After the serum was separated, the calcium concentration in serum was measured with Calcium C kit (manufactured by Wako Junyaku K. K., Japan) (n=3).
In the same manner as in Experiment 8, the test material was administered to the dog, and the blood was collected at intervals. After the serum was separated, the human calcitonin concentration in serum was measured by RIA.

In data set [1] the test system is calcium and phosphur in blood. In words: Experiment 11: blood calcium and phosphur concentration after sublingual rapidly soluble composition. In kind it is in vivo. The settings on record: Beagle dog, tartaric acid 10 w/v % + S-570 2 w/v %, FIG. 8. From the text: The results are shown in the accompanying FIG. 8.
The conditions of data set [2]: Beagle dog, sublingual, tartaric acid 10 w/v % + S-570 2 w/v %, FIG. 8.

We go through 1 molecule from patent publication US5929027A, “Physiologically active polypeptide-containing pharmaceutical composition” (priority 1991, dated 1999).

For orientation: Cmax means the highest concentration seen after dosing.

Consider `CC[C@H](C)[C@H](NC(=O)[C@H](C)NC(=O)[C@@H](NC(=O)[C@H](CCC(N)=O)NC(=O)[C@@H]1CCCN1C(=O)[C@H](Cc1ccccc1)NC(=O)[C@@H](NC(=O)[C@H](Cc1c[nH]cn1)NC(=O)[C@H](Cc1ccccc1)NC(=O)[C@H](CCCCN)NC(=O)[C@H](CC(N)=O)NC(=O)[C@H](Cc1ccccc1)NC(=O)[C@H](CC(=O)O)NC(=O)[C@H](CCC(N)=O)NC(=O)[C@@H](NC(=O)[C@H](Cc1ccc(O)cc1)NC(=O)[C@@H](NC(=O)CNC(=O)[C@H](CC(C)C)NC(=O)[C@H](CCSC)NC(=O)[C@@H]1CSSC[C@H](N)C(=O)NCC(=O)N[C@@H](CC(N)=O)C(=O)N[C@@H](CC(C)C)C(=O)N[C@@H](CO)C(=O)N[C@@H]([C@@H](C)O)C(=O)N1)[C@@H](C)O)[C@@H](C)O)[C@@H](C)O)[C@@H](C)O)C(=O)NCC(=O)N[C@H](C(=O)NCC(=O)N[C@@H](C)C(=O)N1CCC[C@H]1C(N)=O)C(C)C` [human calcitonin], for which the highest concentration (Cmax) in the data set “in vivo” (S-970 1.0 w/v %, citric acid 2.0 w/v %) came out at 0.086 ng/mL; in “in vivo” (S-970 2.5 w/v %, citric acid 5.0 w/v %), 0.191 ng/mL; in “in vivo” (S-970 5.0 w/v %, citric acid 10.0 w/v %), 1.12 ng/mL; in “in vivo” (S-970 10.0 w/v %, citric acid 20.0 w/v %), 1.65 ng/mL. Besides, in data set [1], the “concentration of calcium in blood” value is recorded as “lowered”. In addition, the “concentration of phosphur in blood” value in data set [1] is “lowered”. Besides, the “blood human calcitonin concentration” value in data set [2] is reported as “increase”.
